This passage reports IC50 results from BindingDB's records for doi:10.1021/bi035098j (Merck Research Laboratories, 2003).

The term IC50 denotes the concentration at which inhibition is half-maximal. Higher therefore signals weaker potency in that assay.

Test [1] has as its target T1, Tyrosine-protein phosphatase non-receptor type 2 (Homo sapiens, UniProt P17706).
T1 sequence (P17706 whole entry): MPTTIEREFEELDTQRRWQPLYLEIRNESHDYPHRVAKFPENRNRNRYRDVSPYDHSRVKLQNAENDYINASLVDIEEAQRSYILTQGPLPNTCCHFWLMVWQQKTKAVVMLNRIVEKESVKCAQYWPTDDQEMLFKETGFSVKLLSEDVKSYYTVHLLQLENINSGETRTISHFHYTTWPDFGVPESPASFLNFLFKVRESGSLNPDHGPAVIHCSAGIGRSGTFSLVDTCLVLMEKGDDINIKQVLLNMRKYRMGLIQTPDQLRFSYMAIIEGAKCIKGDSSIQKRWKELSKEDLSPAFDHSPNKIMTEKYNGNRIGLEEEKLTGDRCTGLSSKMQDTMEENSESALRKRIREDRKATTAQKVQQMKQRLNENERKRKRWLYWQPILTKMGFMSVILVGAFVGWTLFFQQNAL
The experiment in a line: PTP1B and TCPTP Inhibition Assay. The following applies: pH 6.3; 22 °C.

The target in test [2] is T2, Tyrosine-protein phosphatase non-receptor type 1 [1-298] (Homo sapiens, UniProt P18031).
T2 construct: 1-298
T2 sequence (P18031 whole entry): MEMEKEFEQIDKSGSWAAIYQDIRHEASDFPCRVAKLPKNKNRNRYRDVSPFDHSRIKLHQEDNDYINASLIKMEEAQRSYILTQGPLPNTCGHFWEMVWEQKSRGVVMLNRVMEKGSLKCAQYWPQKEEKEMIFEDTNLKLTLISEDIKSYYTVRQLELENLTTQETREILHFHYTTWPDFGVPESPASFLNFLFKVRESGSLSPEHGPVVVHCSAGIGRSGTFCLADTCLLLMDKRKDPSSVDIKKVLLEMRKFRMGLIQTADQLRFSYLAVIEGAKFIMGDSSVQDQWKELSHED
The test is described as follows: PTP1B and TCPTP Inhibition Assay. The following applies: pH 6.3; 22 °C.

Consider `COCOC(CC(C)C)c1ccc2cc(-c3ccc(CC(Cc4ccc(C(F)(F)P(=O)(O)O)cc4)(c4ccccc4)n4nnc5ccccc54)cc3)cc(P(=O)(O)O)c2n1` (centres undefined) [6-{4-[2-(1H-1,2,3-benzotriazol-1-yl)-3-{4-[difluoro(phosphono)methyl]phenyl}-2-phenylpropyl]phenyl}-2-[1-(methoxymethoxy)-3-methylbutyl]quinoline-8-phosphonic acid], for which the IC50 was 0.021 µM in test [1] and 0.011 µM in test [2].

`O=P(O)(O)C(F)(F)c1ccc(C[C@H](c2ccccc2)n2nnc3ccccc32)cc1` [({4-[(2R)-2-(1H-1,2,3-benzotriazol-1-yl)-2-phenylethyl]phenyl}difluoromethyl)phosphonic acid]: the IC50 in test [2] is 8.04 µM.

For the compound `CC(C)CCOc1ccc(-c2ccc(CC(Cc3ccc(C(F)(F)P(=O)(O)O)cc3)(c3ccccc3)n3nnc4ccccc43)cc2)cc1P(=O)(O)O` (centres undefined) [5-{4-[2-(1H-1,2,3-benzotriazol-1-yl)-3-{4-[difluoro(phosphono)methyl]phenyl}-2-phenylpropyl]phenyl}-2-(3-methylbutoxy)benzene-1-phosphonic acid], the IC50 in test [1] was determined as 0.02 µM; in test [2] it was 0.006 µM.

As to `CC(C)CC(O)c1ccc2cc(-c3ccc(CC(Cc4ccc(C(F)(F)P(=O)(O)O)cc4)(c4ccccc4)n4nnc5ccccc54)cc3)cc(P(=O)(O)O)c2n1` (centres undefined) [6-{4-[2-(1H-1,2,3-benzotriazol-1-yl)-3-{4-[difluoro(phosphono)methyl]phenyl}-2-phenylpropyl]phenyl}-2-(1-hydroxy-3-methylbutyl)quinoline-8-phosphonic acid], the IC50 in test [1] worked out at 0.017 µM; in test [2], 0.006 µM.

Turning to `COc1ccc(-c2ccc(CC(Cc3ccc(C(F)(F)P(=O)(O)O)cc3)(c3ccccc3)n3nnc4ccccc43)cc2)cc1P(=O)(O)O` (centres undefined) [5-{4-[2-(1H-1,2,3-benzotriazol-1-yl)-3-{4-[difluoro(phosphono)methyl]phenyl}-2-phenylpropyl]phenyl}-2-methoxybenzene-1-phosphonic acid], the figures for the IC50 in test [1] and in test [2] were 0.031 µM and 0.01 µM, respectively.

`COC(CC(C)C)c1ccc2cc(-c3ccc(CC(Cc4ccc(C(F)(F)P(=O)(O)O)cc4)(c4ccccc4)n4nnc5ccccc54)cc3)cc(P(=O)(O)O)c2n1` (centres undefined) [6-{4-[2-(1H-1,2,3-benzotriazol-1-yl)-3-{4-[difluoro(phosphono)methyl]phenyl}-2-phenylpropyl]phenyl}-2-(1-methoxy-3-methylbutyl)quinoline-8-phosphonic acid] displayed an IC50 in test [1] of 0.036 µM.

Take `Cc1ccc2cc(-c3ccc(CC(Cc4ccc(C(F)(F)P(=O)(O)O)cc4)(c4ccccc4)n4nnc5ccccc54)cc3)cc(P(=O)(O)O)c2n1` (centres undefined): in test [1], the IC50 is 0.02 µM.

Compound `O=P(O)(O)C(F)(F)c1ccc(CC(Cc2ccc(C(F)(F)P(=O)(O)O)cc2)(c2ccccc2)n2nnc3ccccc32)cc1` displayed an IC50 in test [1] of 0.011 µM.

`O=P(O)(O)C(F)(F)c1ccc(CC(Cc2ccc(-c3ccccc3)cc2)(c2ccccc2)n2nnc3ccccc32)cc1` (centres undefined) [({4-[2-(1H-1,2,3-benzotriazol-1-yl)-2-phenyl-3-(4-phenylphenyl)propyl]phenyl}difluoromethyl)phosphonic acid]: the IC50 in test [1] is 0.024 µM; in test [2], 0.038 µM.
